Values joined by “and” are separate entries in the source; they are usually repeats but may differ in a detail not shown here. Identical values can stand only once.
Tests used:
H-1299 cells = test: MTT cytotoxicity assay, H-1299; format: cell-based, human
Outline: (§1)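 Cells seeded at 1.0 × 10^5/well, grown 24 h, then exposed 48 h to compounds at 0.1–20 μM (≤1% DMSO); U118-MG in DMEM, H1299 in RPMI 1640, both with 10% FBS, 37 °C. MTT 2 h, formazan in DMSO read at 570 nm; IC50 relative to untreated cells (100%).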

U-118 MG cells = test: MTT cytotoxicity assay, U-118 MG; format: cell-based, human; settings: 48 h
Outline: as §1

HF-P4 cells = test: MTT cytotoxicity assay, HF-P4; format: cell-based, human; settings: 48 h; for Cell viability %: repeats
Outline: (§2)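 Cells seeded at 1.0 × 10^5 per well, grown 24 h, then exposed 48 h to compounds at 0.1–20 μM (DMSO ≤1%). MTT added for 2 h, formazan dissolved in DMSO, absorbance read at 570 nm. IC50 calculated relative to untreated cells (100%).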

[1] = MTT cytotoxicity assay, HF-P4; format: cell-based, human; settings: human, HF-P4 normal human dermal fibroblasts, repeats, read-out: Cell viability %
Outline: as §2

Q: For `Cc1ccc(-n2c(-c3ccc(C(=O)N/N=C/c4ccc(O)cc4O)cc3)cc3c2cc(-c2ccc(C(=O)N/N=C/c4ccc(O)cc4O)cc2)n3-c2ccc(C)cc2)cc1` [Compound 4], which Cell viability % (H-1299 cells; H-1299, 100 nM, 48 h, repeats, 0.1 µM) is on record?
A: 109.0835% and 92.98%

Q: And the Cell viability % (H-1299 cells; H-1299, 500 nM, 48 h, repeats, 0.5 µM)?
A: 110.8313% and 69.08% and 86.72%

Q: And the Cell viability % (H-1299 cells; H-1299, 750 nM, 48 h, repeats, 0.75 µM)?
A: 86.2% and 81.89%

Q: What about the Cell viability % (H-1299 cells; H-1299, 1 uM, 48 h, repeats, 1 µM) of the same compound?
A: 88.02% and 73.99% and 66.83%

Q: What about the Cell viability % (H-1299 cells; H-1299, 2.5 uM, 48 h, repeats, 2.5 µM) of the same compound?
A: 77.91% and 68.92%

Q: What about the Cell viability % (H-1299 cells; H-1299, 5 uM, 48 h, repeats, 5 µM) of the same compound?
A: 68.74% and 52.75%

Q: And the Cell viability % (H-1299 cells; H-1299, 7.5 uM, 48 h, repeats, 7.5 µM)?
A: 38.28% and 33.07%

Q: And the Cell viability % (H-1299 cells; H-1299, 10 uM, 48 h, repeats, 10 µM)?
A: 21.64% and 18.84%

Q: And the Cell viability % (H-1299 cells; H-1299, 15 uM, 48 h, repeats, 15 µM)?
A: 10.46% and 11.78%

Q: And the Cell viability % (H-1299 cells; H-1299, 20 uM, 48 h, repeats, 20 µM)?
A: 7.89% and 6.315%

Q: What about the viability at 0.1 µM (H-1299 cells; Homo sapiens, NCI-H1299, 48 h, H-1299, 100 nM, repeats, read-out: Cell viability %) of the same compound?
A: 110%

Q: What about the viability at 0.75 µM (H-1299 cells; Homo sapiens, NCI-H1299, 48 h, H-1299, 750 nM, repeats, read-out: Cell viability %) of the same compound?
A: 86.1%

Q: And the viability at 2.5 µM (H-1299 cells; Homo sapiens, NCI-H1299, 48 h, H-1299, 2.5 uM, repeats, read-out: Cell viability %)?
A: 77.6%

Q: And the viability at 5 µM (H-1299 cells; Homo sapiens, NCI-H1299, 48 h, H-1299, 5 uM, repeats, read-out: Cell viability %)?
A: 66.7%

Q: What about the viability at 7.5 µM (H-1299 cells; Homo sapiens, NCI-H1299, 48 h, H-1299, 7.5 uM, repeats, read-out: Cell viability %) of the same compound?
A: 35.8%

Q: And the viability at 10 µM (H-1299 cells; Homo sapiens, NCI-H1299, 48 h, H-1299, 10 uM, repeats, read-out: Cell viability %)?
A: 14.8%

Q: And the viability at 15 µM (H-1299 cells; Homo sapiens, NCI-H1299, 48 h, H-1299, 15 uM, repeats, read-out: Cell viability %)?
A: 11.1%

Q: What about the viability at 20 µM (H-1299 cells; Homo sapiens, NCI-H1299, 48 h, H-1299, 20 uM, repeats, read-out: Cell viability %) of the same compound?
A: 7.35%

Q: What about the IC50 (H-1299 cells; Homo sapiens, NCI-H1299, MTT, 48 h) of the same compound?
A: 5.75 µM

Q: What about the viability at 0.1 µM (U-118 MG cells; Homo sapiens, U-118-MG, U-118 MG, 100 nM, repeats, read-out: Cell viability %) of the same compound?
A: 89.7%

Q: And the viability at 0.5 µM (U-118 MG cells; Homo sapiens, U-118-MG, U-118 MG, 500 nM, repeats, read-out: Cell viability %)?
A: 81.5%

Q: And the viability at 0.75 µM (U-118 MG cells; Homo sapiens, U-118-MG, U-118 MG, 750 nM, repeats, read-out: Cell viability %)?
A: 88.6%

Q: And the viability at 1 µM (U-118 MG cells; Homo sapiens, U-118-MG, U-118 MG, 1 uM, repeats, read-out: Cell viability %)?
A: 88.8%

Q: What about the viability at 2.5 µM (U-118 MG cells; Homo sapiens, U-118-MG, U-118 MG, 2.5 uM, repeats, read-out: Cell viability %) of the same compound?
A: 78.8%

Q: What about the viability at 5 µM (U-118 MG cells; Homo sapiens, U-118-MG, U-118 MG, 5 uM, repeats, read-out: Cell viability %) of the same compound?
A: 73.7%

Q: And the viability at 7.5 µM (U-118 MG cells; Homo sapiens, U-118-MG, U-118 MG, 7.5 uM, repeats, read-out: Cell viability %)?
A: 24.8%

Q: And the viability at 10 µM (U-118 MG cells; Homo sapiens, U-118-MG, U-118 MG, 10 uM, repeats, read-out: Cell viability %)?
A: 30%

Q: What about the viability at 15 µM (U-118 MG cells; Homo sapiens, U-118-MG, U-118 MG, 15 uM, repeats, read-out: Cell viability %) of the same compound?
A: 21.2%

Q: And the viability at 20 µM (U-118 MG cells; Homo sapiens, U-118-MG, U-118 MG, 20 uM, repeats, read-out: Cell viability %)?
A: 15.2%

Q: And the IC50 (U-118 MG cells; Homo sapiens, U-118-MG, MTT)?
A: 6.81 µM

Q: And the Cell viability % (U-118 MG cells; U-118 MG, 100 nM, repeats, 0.1 µM)?
A: 88.01% and 106.1964%

Q: And the Cell viability % (U-118 MG cells; U-118 MG, 500 nM, repeats, 0.5 µM)?
A: 94.35% and 91.8%

Q: And the Cell viability % (U-118 MG cells; U-118 MG, 750 nM, repeats, 0.75 µM)?
A: 93.98% and 97.45%

Q: What about the Cell viability % (U-118 MG cells; U-118 MG, 1 uM, repeats) of the same compound?
A: 94.85% and 87.1%

Q: And the Cell viability % (U-118 MG cells; U-118 MG, 2.5 uM, repeats)?
A: 87.61% and 83.16%

Q: What about the Cell viability % (U-118 MG cells; U-118 MG, 5 uM, repeats) of the same compound?
A: 72.71% and 76.46%

Q: What about the Cell viability % (U-118 MG cells; U-118 MG, 7.5 uM, repeats) of the same compound?
A: 24.19% and 24.17%

Q: And the Cell viability % (U-118 MG cells; U-118 MG, 10 uM, repeats)?
A: 29.03% and 31.26%

Q: And the Cell viability % (U-118 MG cells; U-118 MG, 15 uM, repeats)?
A: 21.17% and 19.82%

Q: What about the Cell viability % (U-118 MG cells; U-118 MG, 20 uM, repeats) of the same compound?
A: 15.6756% and 12.31%

Q: What about the Cell viability % (HF-P4 cells; HF-P4, 100 nM, 0.1 µM) of the same compound?
A: 100.6236% and 114.7117%

Q: What about the Cell viability % (HF-P4 cells; HF-P4, 500 nM, 0.5 µM) of the same compound?
A: 87.47% and 94.87%

Q: And the Cell viability % (HF-P4 cells; HF-P4, 750 nM, 0.75 µM)?
A: 85.1% and 92.38%

Q: And the Cell viability % (HF-P4 cells; HF-P4, 1 uM, 1 µM)?
A: 81.67% and 86.71%

Q: What about the Cell viability % (HF-P4 cells; HF-P4, 2.5 uM, 2.5 µM) of the same compound?
A: 86.63% and 76.23%

Q: What about the Cell viability % (HF-P4 cells; HF-P4, 5 uM, 5 µM) of the same compound?
A: 73.34% and 61.32%

Q: And the Cell viability % (HF-P4 cells; HF-P4, 7.5 uM, 7.5 µM)?
A: 70.27% and 58.24%

Q: And the Cell viability % (HF-P4 cells; HF-P4, 10 uM, 10 µM)?
A: 62.49% and 65.68%

Q: And the Cell viability % (HF-P4 cells; HF-P4, 15 uM, 15 µM)?
A: 53.94% and 54.86%

Q: And the Cell viability % (HF-P4 cells; HF-P4, 20 uM, 20 µM)?
A: 38.68% and 44.63%

Q: What about the IC50 (HF-P4 cells; Homo sapiens, MTT) of the same compound?
A: 13.1 µM

Q: And the viability at 48 h, 0.1 µM ([1]; HF-P4, 100 nM)?
A: 102%

Q: What about the viability at 48 h, 0.5 µM ([1]; HF-P4, 500 nM) of the same compound?
A: 94.9%

Q: And the viability at 48 h, 0.75 µM ([1]; HF-P4, 750 nM)?
A: 84.8%

Q: And the viability at 48 h, 1 µM ([1]; HF-P4, 1 uM)?
A: 86%

Q: And the viability at 48 h, 2.5 µM ([1]; HF-P4, 2.5 uM)?
A: 74.5%

Q: What about the viability at 48 h, 5 µM ([1]; HF-P4, 5 uM) of the same compound?
A: 74.9%

Q: And the viability at 48 h, 7.5 µM ([1]; HF-P4, 7.5 uM)?
A: 66.9%

Q: And the viability at 48 h, 10 µM ([1]; HF-P4, 10 uM)?
A: 59.9%

Q: What about the viability at 48 h, 15 µM ([1]; HF-P4, 15 uM) of the same compound?
A: 45.1%

Q: And the viability at 48 h, 20 µM ([1]; HF-P4, 20 uM)?
A: 36.4%

Q: And the melting point?
A: 328 to 329 °C
